# Assay results taken from US12419947B2, “Inorganic polyatomic oxyanions for protecting against antigenic damage during pathogen inactivation for vaccine production” (priority 2016, dated 2025).
# Columns and labels:
# [1] = tested on: dengue serotype 4 (DENV4); assay: DENV4 live virus plaque assay on Vero cells; format: cell-based, dengue virus; settings: for rate of inactivation (viable virus at 1 hr post-inactivation): H2O2=0.01%, compound 10 μM; for virus inactivation with added salt during H2O2/CuCl2 inactivation: 0.01% H2O2, 1 μM CuCl2, 20 hours
# [2] = tested on: dengue serotype 4 (DENV4); assay: DENV-specific sandwich ELISA (MAbs 15A5 and 6H6) on treated DENV4; format: binding, dengue virus; settings: for antigenicity (ELISA at 20 hrs post-inactivation): H2O2=0.01%, compound 10 μM; for ELISA signal / antigenicity with added salt during H2O2/CuCl2 inactivation: 0.01% H2O2, 1 μM CuCl2, 20 hours, vs standard conditions; for ELISA signal with added oxyanion during formaldehyde inactivation: 0.01% formaldehyde, 20 days at 37° C.; for ELISA signal with added oxyanion during BPL inactivation: 0.1% BPL
# vaccinia virus (VV) = format: cell-based; settings: H2O2=0.002%, CuCl2=1 μM, MZ=10 μM, PBS pH=7.5
# [3] = tested on: Campylobacter coli (C. coli); assay: C. coli inactivation (viable bacteria over time); format: cell-based; settings: H2O2=0.01%, MZ=20 μM, 150 mM NaPO4
# Shigella dysenteriae = Shigella dysenteriae inactivation (CFU/mL); format: cell-based; settings: H2O2=0.10%, CuCl2=10 μM, MZ=100 μM, 150 mM NaPO4
# [4] = tested on: chikungunya virus (CHIKV); format: cell-based
# vaccinia = settings: cited from earlier work
# smallpox = settings: in vivo; cited from earlier work
# [5] = tested on: chikungunya virus (CHIKV); assay: CHIKV-specific sandwich ELISA (retained antigenicity); format: binding
# Listeria monocytogenes = Listeria monocytogenes inactivation (CFU/mL); format: cell-based; settings: H2O2=0.10%, MZ=100 μM, 150 mM NaPO4
# dengue virus 3 (DENV3) = assay: DENV-specific sandwich ELISA on treated DENV3; format: binding; settings: H2O2 0.01%
# [6] = tested on: Campylobacter coli (C. coli); assay: Campylobacter morphology after inactivation (Gram safranin stain); settings: 3% H2O2 5 hours, or 0.01% H2O2 and 2 uM CuCl2
# DENV2 = DENV2 inactivation kinetics (PFU assay); format: cell-based, dengue virus; settings: 3% H2O2, or 0.01% H2O2 and 1 μM CuCl2, room temperature
# [7] = 20 hours, room temperature, 150 mM NaPO4
# [8] = 0.01% formaldehyde with high oxyanion, 20 days at 37° C.
# [9] = 0.1% BPL with high oxyanion, 20 hours
# [10] = BEI, Na2HPO4 150 mM, 20 hours at 37° C.
smiles,measurement,setting,value
NC(=S)NN=C1C(=O)Nc2ccccc21 [isatin β-thiosemicarbazone],rate of inactivation (viable virus at 1 hr post-inactivation),"[1]; CuCl2=1 μM, 150 mM NaPO4",enhanced rates of inactivation
same,antigenicity (ELISA at 20 hrs post-inactivation),"[2]; CuCl2=1 μM, 150 mM NaPO4",superior antigenicity
"CN1C(=O)/C(=N\NC(N)=S)c2ccccc21 [methisazone, N-methyl-isatin β-thiosemicarbazone]",rate of dual-oxidation-based inactivation on addition of methisazone,"[1]; H2O2=0.002%, CuCl2=1 μM, MZ=10 μM, 150 mM NaPO4",substantially increase the rate
same,virus inactivation by methisazone alone,[1]; MZ=10 μM,minimal impact
same,increase of the rate of inactivation on addition of methisazone,"[1]; dual oxidation, 150 mM NaPO4, stated for CHIKV and DENV4 together",10- to 20 fold
same,antigenicity on addition of methisazone to dual oxidation,[2]; [7],maintained or significantly improved antigenicity
same,"antigenicity, methisazone together with polyatomic oxyanions","[2]; H2O2=0.002%, CuCl2=1 μM, 150 mM Na2HPO4, methisazone 10 μM, 20 hours",higher antigenicity than could be achieved by either approach in isolation
same,rate of dual-oxidation-based inactivation on addition of methisazone,vaccinia virus (VV),substantially increase the rate
same,inactivation rate on addition of methisazone to H2O2/CuCl2,[3],substantially enhanced inactivation rates
same,inactivation rate on addition of methisazone to H2O2/CuCl2,Shigella dysenteriae,substantially enhanced inactivation rates
same,increase of the rate of inactivation on addition of methisazone,[4],10- to 20 fold
same,rate of dual-oxidation-based inactivation on addition of methisazone,[4],substantially increase the rate
same,virus inactivation (plaque assay at 1 hr) with increasing methisazone relative to the transition metal,[4],increased virus inactivation rates
same,virus inactivation by methisazone alone,[4],minimal impact
same,serious adverse events,"vaccinia; mean initial dose 152 mg/kg, total average 809 mg/kg over 3.75 days",lack of serious adverse events
same,complications of vaccinia vaccination,vaccinia; used prophylactically prior to vaccinia vaccination,reduce complications
same,deaths among close contacts receiving methisazone,smallpox,no deaths
same,antigenicity on addition of methisazone to dual oxidation,[5]; [7],maintained or significantly improved antigenicity
same,retained antigenicity at 20 hrs with increasing methisazone relative to the transition metal,"[5]; H2O2 0.02%, CuCl2 1 μM, 150 mM NaPO4",improvements in both retained antigenicity
same,inactivation rate on addition of methisazone to H2O2/CuCl2,Listeria monocytogenes,substantially enhanced inactivation rates
O=S(=O)([O-])[O-].[Na+].[Na+] [sodium sulfate],virus inactivation with added salt during H2O2/CuCl2 inactivation,[1],complete virus inactivation
same,virus inactivation,[1]; [8],completely inactivated
same,virus inactivation,[1]; [9],completely inactivated
same,ELISA signal / antigenicity with added salt during H2O2/CuCl2 inactivation,[2]; room temperature,improved antigenicity
same,ELISA signal with added oxyanion during formaldehyde inactivation,[2],increased ELISA signals
same,ELISA signal with added oxyanion during BPL inactivation,"[2]; 20 hours, room temperature",increased ELISA signals
[Cl][Fe]([Cl])[Cl] [FeCl3],antigenicity with increasing FeCl3 concentrations,dengue virus 3 (DENV3),enhanced antigenicity
NNC(N)=O [semicarbazide],rate of inactivation (viable virus at 1 hr post-inactivation),"[1]; CuCl2=1 μM, 150 mM NaPO4",do not appear to increase the rate of inactivation
same,antigenicity (ELISA at 20 hrs post-inactivation),"[2]; CuCl2=1 μM, 150 mM NaPO4",protection of protein antigens from oxidative damage
"OO [H2O2, hydrogen peroxide]",bacterial morphology,[6],substantially damaged with clear changes in morphology
same,kinetics of virus inactivation versus total viral protein concentration,DENV2,protein concentration-independent
same,neutralizing epitopes (antigenicity),yellow fever virus (YFV),severe damage to neutralizing epitopes
same,antigenicity (in vitro potency testing using envelope-specific MAbs),[5]; 3% H2O2 under standard conditions,nearly complete loss of antigenicity
O=C1Nc2ccccc2C1=O [isatin],rate of inactivation (viable virus at 1 hr post-inactivation),"[1]; CuCl2=1 μM, 150 mM NaPO4",do not appear to increase the rate of inactivation
same,antigenicity (ELISA at 20 hrs post-inactivation),"[2]; CuCl2=1 μM, 150 mM NaPO4",protection of protein antigens from oxidative damage
"O=C1CCO1 [BPL, β-propiolactone, reference compound]",ELISA signal,"[2]; standard BPL conditions: 0.1% BPL, 20 hours, room temperature",loss of ELISA signal
NNC(N)=S [thiosemicarbazide],rate of inactivation (viable virus at 1 hr post-inactivation),"[1]; CuCl2=1 μM, 150 mM NaPO4",enhancement of inactivation
same,antigenicity (ELISA at 20 hrs post-inactivation),"[2]; CuCl2=1 μM, 150 mM NaPO4",superior antigenicity
"[Cl-].[Na+] [sodium chloride, reference compound]",ELISA signal / antigenicity with added salt during H2O2/CuCl2 inactivation,[2]; room temperature,no protective effect on antigenicity
O=P([O-])([O-])OP(=O)([O-])OP(=O)([O-])[O-].[Na+].[Na+].[Na+].[Na+].[Na+] [sodium triphosphate],virus inactivation with added salt during H2O2/CuCl2 inactivation,[1],completely inactivated
same,ELISA signal / antigenicity with added salt during H2O2/CuCl2 inactivation,[2]; room temperature,increased ELISA signals
CCCN1C(=O)C(=NNC(N)=S)c2ccccc21 [N-propylisatin β-thiosemicarbazone],rate of inactivation (viable virus at 1 hr post-inactivation),"[1]; CuCl2=1 μM, 150 mM NaPO4",enhanced rates of inactivation
same,antigenicity (ELISA at 20 hrs post-inactivation),"[2]; CuCl2=1 μM, 150 mM NaPO4",superior antigenicity
O=S(=O)([O-])[O-].[Mg+2] [magnesium sulfate],virus inactivation with added salt during H2O2/CuCl2 inactivation,[1],complete virus inactivation
same,ELISA signal / antigenicity with added salt during H2O2/CuCl2 inactivation,[2]; room temperature,improved antigenicity
"O=P(O)(O)O [Na2HPO4, sodium phosphate]",virus inactivation with added salt during H2O2/CuCl2 inactivation,[1],complete virus inactivation
same,virus inactivation,[1]; [8],completely inactivated
same,virus inactivation,[1]; [9],completely inactivated
same,kinetics of virus inactivation in presence vs absence of high Na2HPO4,"[1]; 150 mM vs 10 mM, 0.01% H2O2, 1 μM CuCl2",similar
same,virus inactivation,[1]; [10],completely inactivated
same,ELISA signal / antigenicity with added salt during H2O2/CuCl2 inactivation,[2]; room temperature,increased ELISA signal
same,ELISA signal with added oxyanion during formaldehyde inactivation,[2],increased ELISA signals
same,ELISA signal with added oxyanion during BPL inactivation,"[2]; 20 hours, room temperature",increased ELISA signals
same,ELISA signal with added oxyanion during BEI inactivation,[2]; [10],increased ELISA signals
same,"residual live virus (co-culture, estimated LOD of 100 PFU/mL)",[4],completely inactivated
same,ELISA signal with added oxyanion during H2O2/CuCl2 inactivation,"[5]; 0.01% H2O2, 5 μM CuCl2, 20 hours, 150 mM Na2HPO4 with or without 3 mM Na3P3O9",increased ELISA signals
O=P1([O-])OP(=O)([O-])OP(=O)([O-])O1.[Na+].[Na+].[Na+] [sodium trimetaphosphate],virus inactivation with added salt during H2O2/CuCl2 inactivation,[1],completely inactivated
same,ELISA signal / antigenicity with added salt during H2O2/CuCl2 inactivation,[2]; room temperature,increased ELISA signals
"[Cl-].[Cl-].[Mg+2] [magnesium chloride, reference compound]",ELISA signal / antigenicity with added salt during H2O2/CuCl2 inactivation,[2]; room temperature,no protective effect on antigenicity
